US20140193827A1 (TEVA PHARMACEUTICAL INDUSTRIES, LTD., priority 2013, published 2014)

Tested on: GA-primed murine splenocytes

glatiramer acetate [GA]
AVG expression CYP2S1: 6.418
